Measurements published in paper PMC10629583, “Specific inhibition of an anticancer target, polo-like kinase 1, by allosterically dismantling its mechanism of substrate recognition” (Proceedings of the National Academy of Sciences of the …, 2023).
“Also recorded” adds a separate entry of the source.

How the values were obtained:
H1 = H1 (Homo sapiens, UniProt P35367); assay: PDSP off-target binding screen; conditions: for inhibition at 10 µM: read-out: Primary screen AVE(%inhib)±SD; for Ki: read-out: Secondary screen Ki
Text: (§1) PDSP no. Compound Interactions (Ki, µM)
(§2) 60477 Allopole-A None observed.
(§3) trigger a secondary screen at that receptor.

M2 = target: T1, M2 (Homo sapiens, UniProt P08172); assay: PDSP off-target binding screen; conditions: for inhibition at 10 µM: read-out: Primary screen AVE(%inhib)±SD; for Ki: read-out: Secondary screen Ki
T1 sequence (P08172 1-466): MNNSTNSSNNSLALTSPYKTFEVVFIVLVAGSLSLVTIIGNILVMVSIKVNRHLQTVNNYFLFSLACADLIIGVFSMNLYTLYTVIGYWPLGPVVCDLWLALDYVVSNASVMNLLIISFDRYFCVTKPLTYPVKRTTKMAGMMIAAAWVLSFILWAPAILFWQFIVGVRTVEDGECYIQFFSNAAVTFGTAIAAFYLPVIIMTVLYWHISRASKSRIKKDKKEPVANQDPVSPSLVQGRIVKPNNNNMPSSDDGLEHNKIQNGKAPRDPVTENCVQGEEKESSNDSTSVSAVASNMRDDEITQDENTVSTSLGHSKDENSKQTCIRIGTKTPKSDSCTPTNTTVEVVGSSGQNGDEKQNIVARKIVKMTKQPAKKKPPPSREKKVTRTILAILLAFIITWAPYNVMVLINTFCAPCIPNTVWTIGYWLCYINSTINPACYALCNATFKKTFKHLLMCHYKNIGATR
Text: as §1, §2, §3

5-HT1E = target: T2, 5-HT1E (Homo sapiens, UniProt P28566); assay: PDSP off-target binding screen; conditions: for inhibition at 10 µM: read-out: Primary screen AVE(%inhib)±SD; for Ki: read-out: Secondary screen Ki
T2 construct: NIMH Psychoactive Drug Screening Program (UNC)
Text: as §1, §2, §3

M4 = target: T3, M4 (Homo sapiens, UniProt P08173); assay: PDSP off-target binding screen; conditions: for inhibition at 10 µM: read-out: Primary screen AVE(%inhib)±SD; for Ki: read-out: Secondary screen Ki
T3 sequence (P08173 1-479): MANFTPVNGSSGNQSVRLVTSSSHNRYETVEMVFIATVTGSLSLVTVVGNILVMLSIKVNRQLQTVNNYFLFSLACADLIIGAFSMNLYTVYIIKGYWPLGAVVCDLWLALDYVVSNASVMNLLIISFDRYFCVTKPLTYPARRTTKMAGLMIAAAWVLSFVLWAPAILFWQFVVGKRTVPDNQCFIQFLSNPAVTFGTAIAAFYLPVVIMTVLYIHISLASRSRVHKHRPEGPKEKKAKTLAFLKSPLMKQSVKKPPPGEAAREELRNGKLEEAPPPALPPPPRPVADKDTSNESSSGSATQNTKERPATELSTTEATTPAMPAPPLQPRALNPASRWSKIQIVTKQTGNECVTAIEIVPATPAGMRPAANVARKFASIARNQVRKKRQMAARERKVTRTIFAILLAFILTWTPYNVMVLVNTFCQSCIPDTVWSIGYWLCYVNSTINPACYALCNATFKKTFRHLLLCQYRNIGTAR
Text: as §1, §2, §3

5-HT6 = target: T4, 5-HT6 (Homo sapiens, UniProt P50406); assay: PDSP off-target binding screen; conditions: for inhibition at 10 µM: read-out: Primary screen AVE(%inhib)±SD; for Ki: read-out: Secondary screen Ki
T4 construct: NIMH Psychoactive Drug Screening Program (UNC)
Text: as §1, §2, §3

MOR = MOR (Homo sapiens, UniProt P35372); assay: PDSP off-target binding screen; conditions: for inhibition at 10 µM: read-out: Primary screen AVE(%inhib)±SD; for Ki: read-out: Secondary screen Ki
Text: as §1, §2, §3

5-HT1A = target: T5, 5-HT1A (Homo sapiens, UniProt P08908); assay: PDSP off-target binding screen; conditions: for inhibition at 10 µM: read-out: Primary screen AVE(%inhib)±SD; for Ki: read-out: Secondary screen Ki
T5 construct: NIMH Psychoactive Drug Screening Program (UNC)
T5 sequence (P08908 1-422): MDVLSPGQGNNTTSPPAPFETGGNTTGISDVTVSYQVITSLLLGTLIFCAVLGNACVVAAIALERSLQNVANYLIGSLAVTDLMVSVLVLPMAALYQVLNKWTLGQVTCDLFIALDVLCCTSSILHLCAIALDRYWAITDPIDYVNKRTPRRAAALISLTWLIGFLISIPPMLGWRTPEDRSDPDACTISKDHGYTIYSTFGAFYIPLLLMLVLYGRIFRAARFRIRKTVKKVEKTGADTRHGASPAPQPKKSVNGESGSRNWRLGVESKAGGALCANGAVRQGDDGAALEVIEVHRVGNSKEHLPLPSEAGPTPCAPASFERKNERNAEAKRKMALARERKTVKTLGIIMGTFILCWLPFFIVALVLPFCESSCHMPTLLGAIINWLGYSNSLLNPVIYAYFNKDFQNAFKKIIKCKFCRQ
Text: as §1, §2, §3

Alpha1A = target: T6, Alpha1A (Homo sapiens, UniProt P35348); assay: PDSP off-target binding screen; conditions: for inhibition at 10 µM: read-out: Primary screen AVE(%inhib)±SD; for Ki: read-out: Secondary screen Ki
T6 sequence (P35348 1-466): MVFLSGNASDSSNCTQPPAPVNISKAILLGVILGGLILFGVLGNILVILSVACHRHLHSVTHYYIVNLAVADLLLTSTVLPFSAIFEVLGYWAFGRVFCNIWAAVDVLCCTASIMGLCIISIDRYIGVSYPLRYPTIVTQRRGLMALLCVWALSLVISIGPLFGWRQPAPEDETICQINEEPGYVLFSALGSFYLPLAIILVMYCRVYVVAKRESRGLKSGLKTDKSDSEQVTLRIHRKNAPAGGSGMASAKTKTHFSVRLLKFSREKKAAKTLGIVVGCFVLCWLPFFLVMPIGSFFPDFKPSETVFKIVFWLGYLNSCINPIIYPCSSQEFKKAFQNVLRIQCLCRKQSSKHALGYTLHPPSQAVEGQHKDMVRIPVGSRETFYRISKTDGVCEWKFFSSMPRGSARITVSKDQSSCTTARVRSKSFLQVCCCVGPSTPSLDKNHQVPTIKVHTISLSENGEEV
Text: as §1, §2, §3

Alpha2C = target: T7, Alpha2C (Homo sapiens, UniProt P18825); assay: PDSP off-target binding screen; conditions: for inhibition at 10 µM: read-out: Primary screen AVE(%inhib)±SD; for Ki: read-out: Secondary screen Ki
T7 sequence (P18825 1-462): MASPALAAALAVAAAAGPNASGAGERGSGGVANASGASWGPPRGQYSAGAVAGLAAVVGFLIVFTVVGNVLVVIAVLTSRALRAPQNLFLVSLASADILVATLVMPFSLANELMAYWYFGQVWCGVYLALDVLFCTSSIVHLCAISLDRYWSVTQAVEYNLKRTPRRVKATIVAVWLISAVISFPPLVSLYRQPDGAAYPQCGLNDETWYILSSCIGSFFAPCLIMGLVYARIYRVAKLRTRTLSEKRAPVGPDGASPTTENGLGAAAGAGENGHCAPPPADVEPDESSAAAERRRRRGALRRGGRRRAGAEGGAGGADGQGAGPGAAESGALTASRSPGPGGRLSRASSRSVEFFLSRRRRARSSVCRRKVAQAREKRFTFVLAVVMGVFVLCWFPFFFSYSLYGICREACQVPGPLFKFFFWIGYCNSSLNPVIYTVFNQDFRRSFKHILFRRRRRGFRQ
Text: as §1, §2, §3

[1] = system: 45 receptors and channels; assay: PDSP off-target screen (whole panel); assay type: binding, human
Text: as §1, §2, §3

5-HT2B = 5-HT2B (Homo sapiens, UniProt P41595); assay: PDSP off-target binding screen; conditions: for inhibition at 10 µM: read-out: Primary screen AVE(%inhib)±SD
Chain of 5-HT2B (P41595 whole entry): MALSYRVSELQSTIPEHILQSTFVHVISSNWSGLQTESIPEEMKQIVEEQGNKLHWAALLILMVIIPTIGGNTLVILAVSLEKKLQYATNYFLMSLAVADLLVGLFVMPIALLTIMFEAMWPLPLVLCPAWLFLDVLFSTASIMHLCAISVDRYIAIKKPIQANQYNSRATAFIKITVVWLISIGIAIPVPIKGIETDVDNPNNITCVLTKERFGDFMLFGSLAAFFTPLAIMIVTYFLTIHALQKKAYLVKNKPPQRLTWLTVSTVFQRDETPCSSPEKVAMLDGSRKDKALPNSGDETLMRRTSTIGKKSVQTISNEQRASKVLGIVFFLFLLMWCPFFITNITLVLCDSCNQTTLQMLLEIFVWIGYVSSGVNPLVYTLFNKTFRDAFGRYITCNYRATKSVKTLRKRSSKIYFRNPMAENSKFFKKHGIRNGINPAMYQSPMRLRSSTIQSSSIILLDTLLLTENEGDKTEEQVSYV

T2 sequence (P28566 whole entry): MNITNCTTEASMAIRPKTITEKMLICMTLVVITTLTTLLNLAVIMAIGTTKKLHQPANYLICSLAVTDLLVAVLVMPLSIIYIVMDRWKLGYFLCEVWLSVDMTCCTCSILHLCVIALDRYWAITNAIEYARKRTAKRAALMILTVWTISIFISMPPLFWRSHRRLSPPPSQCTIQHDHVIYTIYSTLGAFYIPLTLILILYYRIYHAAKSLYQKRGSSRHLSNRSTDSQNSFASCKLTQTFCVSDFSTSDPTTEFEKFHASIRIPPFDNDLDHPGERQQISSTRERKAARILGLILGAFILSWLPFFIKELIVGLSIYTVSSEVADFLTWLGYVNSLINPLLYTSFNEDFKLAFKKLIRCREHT
T4 sequence (P50406 whole entry): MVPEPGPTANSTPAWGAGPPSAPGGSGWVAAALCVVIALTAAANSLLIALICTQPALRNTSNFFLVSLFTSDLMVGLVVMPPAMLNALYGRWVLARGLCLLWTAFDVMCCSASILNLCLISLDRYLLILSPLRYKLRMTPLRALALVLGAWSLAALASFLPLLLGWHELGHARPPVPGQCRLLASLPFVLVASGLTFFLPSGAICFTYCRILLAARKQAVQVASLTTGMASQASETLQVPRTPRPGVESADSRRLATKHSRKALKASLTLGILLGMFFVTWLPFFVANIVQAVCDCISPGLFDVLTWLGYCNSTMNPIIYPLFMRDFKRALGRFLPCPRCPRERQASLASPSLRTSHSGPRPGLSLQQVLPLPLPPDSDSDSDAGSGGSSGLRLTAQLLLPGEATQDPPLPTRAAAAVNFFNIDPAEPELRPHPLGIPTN
Chain of H1 (P35367 whole entry): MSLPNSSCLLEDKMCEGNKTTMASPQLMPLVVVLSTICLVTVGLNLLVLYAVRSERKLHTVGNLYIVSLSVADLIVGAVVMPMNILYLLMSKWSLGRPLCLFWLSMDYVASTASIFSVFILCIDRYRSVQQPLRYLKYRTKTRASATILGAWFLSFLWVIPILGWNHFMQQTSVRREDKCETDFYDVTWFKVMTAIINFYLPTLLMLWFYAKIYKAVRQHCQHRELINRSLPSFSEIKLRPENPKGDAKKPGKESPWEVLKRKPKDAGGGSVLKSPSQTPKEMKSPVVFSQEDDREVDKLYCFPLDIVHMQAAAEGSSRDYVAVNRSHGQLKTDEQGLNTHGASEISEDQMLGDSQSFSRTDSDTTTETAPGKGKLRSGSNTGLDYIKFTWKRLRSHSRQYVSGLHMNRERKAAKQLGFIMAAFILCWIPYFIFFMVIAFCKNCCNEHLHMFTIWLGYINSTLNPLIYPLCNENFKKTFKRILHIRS
Chain of MOR (P35372 whole entry): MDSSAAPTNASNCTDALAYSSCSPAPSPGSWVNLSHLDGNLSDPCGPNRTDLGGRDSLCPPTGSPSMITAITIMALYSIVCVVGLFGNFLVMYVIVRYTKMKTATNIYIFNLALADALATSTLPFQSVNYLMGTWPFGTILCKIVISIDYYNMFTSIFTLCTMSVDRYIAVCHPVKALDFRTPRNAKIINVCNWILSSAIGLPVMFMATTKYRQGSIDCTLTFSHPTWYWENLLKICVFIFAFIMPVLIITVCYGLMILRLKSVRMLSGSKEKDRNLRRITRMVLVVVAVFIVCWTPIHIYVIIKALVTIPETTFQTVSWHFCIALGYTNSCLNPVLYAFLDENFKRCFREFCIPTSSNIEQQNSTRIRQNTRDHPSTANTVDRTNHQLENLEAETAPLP

`O=c1c2sc(Cl)cc2n2c(=S)[nH]nc2n1CC1CC1` [Allopole-A] was tested, and the inhibition at 10 µM (H1) was 11.5 ± 2.8%, the Ki (H1) was over 10 µM and the inhibition at 10 µM (M2) was 21.1 ± 19.7%. For the same compound, the Ki (M2) was over 10 µM, the inhibition at 10 µM (5-HT1E) was 31.3 ± 7.6% and the Ki (5-HT1E) was over 10 µM. For the same compound, the inhibition at 10 µM (M4) was -8.8 ± 4.8%, the Ki (M4) was over 10 µM and the inhibition at 10 µM (5-HT6) was -5 ± 11.7%. It also gave a Ki (5-HT6) of over 10 µM, an inhibition at 10 µM (MOR) of 30.8 ± 47.5% and a Ki (MOR) of over 10 µM. For the same compound, the inhibition at 10 µM (5-HT1A) was -20 ± 27.4%, the Ki (5-HT1A) was over 10 µM and the inhibition at 10 µM (Alpha1A) was -9.4 ± 18%. It also gave a Ki (Alpha1A) of over 10 µM, an inhibition at 10 µM (Alpha2C) of 10.6 ± 4.2% and a Ki (Alpha2C) of over 10 µM. The “Interactions (Ki, µM), summary of PDSP screen (in words)” value [1] was “None observed; also recorded: no interactions”, the Ki (5-HT2B) was over 10 µM and the inhibition at 10 µM (5-HT2B) was -17.7 ± 11.2%.

With `Cn1cnc([N+](=O)[O-])c1Sc1nnc2n(CC3CC3)c(=O)c3sc(Cl)cc3n12` [Allopole] the inhibition at 10 µM (H1) was 35.8 ± 11.9%, the Ki (H1) was over 10 µM and the inhibition at 10 µM (M2) was 9.3 ± 19.3%. The Ki (M2) was over 10 µM, the inhibition at 10 µM (5-HT1E) was 22.2 ± 10.5% and the Ki (5-HT1E) was over 10 µM. For the same compound, the inhibition at 10 µM (M4) was -8.7 ± 9.5%, the Ki (M4) was over 10 µM and the inhibition at 10 µM (5-HT6) was 21.9 ± 15.6%. It also gave a Ki (5-HT6) of over 10 µM, an inhibition at 10 µM (MOR) of 40.6 ± 51% and a Ki (MOR) of over 10 µM. The inhibition at 10 µM (5-HT1A) was -12.8 ± 19.7%, the Ki (5-HT1A) was over 10 µM and the inhibition at 10 µM (Alpha1A) was 40.6 ± 10.5%. The Ki (Alpha1A) was over 10 µM, the inhibition at 10 µM (Alpha2C) was 6.4 ± 7.5% and the Ki (Alpha2C) was over 10 µM. For the same compound, the “Interactions (Ki, µM), summary of PDSP screen (in words)” value [1] was “only two weak µM interactions”, the Ki (5-HT2B) was over 10 µM and the inhibition at 10 µM (5-HT2B) was -0.5 ± 5%.
